Assay results: article PMC4948780, “PARP Inhibitors in Clinical Use Induce Genomic Instability in Normal Human Cells” (PLoS ONE, 2016)

Legend:
primary T cell 2 [1] = test: Survival, trypan blue exclusion test of cell viability; assay type: cell-based; conditions: Homo sapiens, read-out: IC50 of olaparib, continuous exposure
Source text: (§1) Human mammary epithelial cell lines used included non-tumorigenic diploid MCF-10A, HMEC-hTERT and tumorigenic MDA-MB-468 (basal) and MCF-7 (luminal). […] Blood samples were obtained from normal donor participants. The participants provided written informed consent to IRB protocol #95–054 approved by the Institutional Review Board at MSKCC. The original signed consent is then sent to the research participant’s medical record and a copy of the consent is given to the participant. The EBV-transformed B-lymphocyte cell line (EBV-BL) was generated by transformation of peripheral blood mononuclear cells (PBMC) with the B95.8 strain of EBV, as previously described. Primary T cells were generated from PBMC from two normal donors by non-specific activation with phytohemagglutinin and cultured in RPMI1640 and human serum AB for 4–14 days before use. E14 mES cell line was provided by M. Hooper, Brca1^-/- 236.44 mES cell line was provided by B. H. Koller, Brca2^lex1/lex2 mES cell line was provided by P. Hasty and Lexicon Genetics. E14 wild-type, Brca1^-/- 236.44, and Brca2^lex1/lex2 mES cell lines were cultured in standard ES media. Brca1^-/- 236.44 cells express a BRCA1 peptide deleted for sequences encoded by exon 11 [52], while Brca2^lex1/lex2 cells express a BRCA2 peptide deleted for the terminal exon 27 [53]. […] Viable cells were scored by trypan blue exclusion.

MDA-MB-468 [2] = test: Sister chromatid exchange (SCE) assay, BrdU differential staining; assay type: cell-based, human; conditions: 1 μM, 40 hr
Source text: (§2) Human mammary epithelial cell lines used included non-tumorigenic diploid MCF-10A, HMEC-hTERT and tumorigenic MDA-MB-468 (basal) and MCF-7 (luminal). […] Blood samples were obtained from normal donor participants. The participants provided written informed consent to IRB protocol #95–054 approved by the Institutional Review Board at MSKCC. The original signed consent is then sent to the research participant’s medical record and a copy of the consent is given to the participant. The EBV-transformed B-lymphocyte cell line (EBV-BL) was generated by transformation of peripheral blood mononuclear cells (PBMC) with the B95.8 strain of EBV, as previously described. Primary T cells were generated from PBMC from two normal donors by non-specific activation with phytohemagglutinin and cultured in RPMI1640 and human serum AB for 4–14 days before use. E14 mES cell line was provided by M. Hooper, Brca1^-/- 236.44 mES cell line was provided by B. H. Koller, Brca2^lex1/lex2 mES cell line was provided by P. Hasty and Lexicon Genetics. E14 wild-type, Brca1^-/- 236.44, and Brca2^lex1/lex2 mES cell lines were cultured in standard ES media. Brca1^-/- 236.44 cells express a BRCA1 peptide deleted for sequences encoded by exon 11 [52], while Brca2^lex1/lex2 cells express a BRCA2 peptide deleted for the terminal exon 27 [53]. Olaparib was synthesized in the MSKCC Organic chemistry core facility. Veliparib and BSI-201 were purchased from Chemie Tek. The compounds were dissolved in DMSO and PBS. For clonogenic survival assays, MCF-10A (1000 cells), HMEC-hTERT (1000 cells), MDA-MB-468 (1500 cells) and mouse ES cell (2000 cells) were seeded, vehicle control or inhibitors were added at the indicated concentration 24 hours after seeding and changed every three days for continuous treatment. At 7–14 days, colonies were fixed with methanol and stained with Giemsa. For EBV-BL (6 × 10^6) and primary T cells (3.6 × 10^6) were continuously exposed to the indicated concentration of drug for 10 days at 0.6 × 10^6 cells/ml. Viable cells were scored by trypan blue exclusion.
(§3) To prepare metaphase spreads, exponentially growing cells were treated with 0.1–0.3 μg/ml of colcemid for 1–6 hr. Cells were collected and incubated in hypotonic solution (0.56% KCl), fixed in methanol: acetic acid (3:1), spotted to slides and air-dried. To measure chromosomal aberrations, the slides were stained with 2% Giemsa/Sorensen’s buffer. To visualize SCEs, the doubling time for each cell type was determined. Cells were incubated with 10 μM BrdU for two cell cycles. After metaphase spreads were prepared, the slides were treated with 0.5 μg/ml Hoechst 33258. The slides were exposed to black light for 20–60 min, incubated at 60°C for 2 hr, and stained in 4–10% Giemsa/Sorensen’s buffer.

HMEC-hTERT [3] = test: as above; assay type: cell-based, human; conditions: 1 μM, 30.5 hr
Source text: as §2, §3

primary T cell 2 [4] = test: as above; assay type: cell-based, human; conditions: 1 μM, 70 hr
Source text: as §2, §3

EBV-BL = test: as above; assay type: cell-based, human
Source text: as §2, §3

primary T cell 1 = test: as above; assay type: cell-based, human; conditions: 1 μM, 99 hr
Source text: as §2, §3

MCF-7 = test: as above; assay type: cell-based, human; conditions: 1 μM, 66.5 hr
Source text: as §2, §3

MCF-10A = test: as above; assay type: cell-based, human
Source text: as §2, §3

[5] = tested on: repair-proficient human cells; test: Chromatid-type aberrations, summary over the human cell types; assay type: cell-based
Experimental: as §3

WT E14 mES cells = test: Clonogenic survival assay, mES cells; assay type: cell-based; conditions: Mus musculus, read-out: IC50 (clonogenic survival)
Source text: as §2, with “Olaparib was synthesized in the MSKCC Organic chemistry core facility.” left out

MDA-MB-468 [6] = test: Clonogenic survival assay; assay type: cell-based; conditions: Homo sapiens, read-out: IC50 of olaparib, continuous exposure
Source text: as §1

HMEC-hTERT [7] = test: Clonogenic survival assay; assay type: cell-based; conditions: Homo sapiens, read-out: IC50 of olaparib, continuous exposure
Source text: as §1

[8] = tested on: Brca1^-/- 236.44 mES cells; test: Clonogenic survival assay, mES cells; assay type: cell-based, mouse
Source text: as §2, with “Olaparib was synthesized in the MSKCC Organic chemistry core facility.” left out

[9] = tested on: Brca2^lex1/lex2 mES cells; test: Clonogenic survival assay, mES cells; assay type: cell-based, mouse
Source text: as §2, with “Olaparib was synthesized in the MSKCC Organic chemistry core facility.” left out

[10] = Mus musculus, read-out: IC50 (clonogenic survival)

Structure (SMILES): O=C(c1cc(Cc2n[nH]c(=O)c3ccccc23)ccc1F)N1CCN(C(=O)C2CC2)CC1 [olaparib]
- IC50 (primary T cell 2 [1]): 2700 nM
- Mean no. SCE / chromosome ± SD (MDA-MB-468 [2]): 1.97 ± 0.38
- Mean no. SCE / metaphase ± SD (MDA-MB-468 [2]): 107.9 ± 21.0
- Mean no. SCE / chromosome ± SD (HMEC-hTERT [3]): 1.30 ± 0.22
- Mean no. SCE / metaphase ± SD (HMEC-hTERT [3]): 59.7 ± 10.0
- Mean no. SCE / chromosome ± SD (primary T cell 2 [4]): 0.94 ± 0.21
- Mean no. SCE / metaphase ± SD (primary T cell 2 [4]): 43.0 ± 9.7
- Mean no. SCE / metaphase ± SD (EBV-BL; 0.1 μM): 26.0 ± 6.4
- Mean no. SCE / metaphase ± SD (EBV-BL; 0.5 μM): 36.2 ± 7.4
- Mean no. SCE / chromosome ± SD (EBV-BL; 1 μM, 87 hr): 1.13 ± 0.23
- Mean no. SCE / metaphase ± SD (EBV-BL; 1 μM, 87 hr): 51.6 ± 10.6
- Mean no. SCE / chromosome ± SD (primary T cell 1): 0.90 ± 0.20
- Mean no. SCE / metaphase ± SD (primary T cell 1): 41.3 ± 9.3
- Mean no. SCE / metaphase ± SD (MCF-7): 152.4 ± 21.9
- Mean no. SCE / metaphase ± SD (MCF-10A; 0.1 μM): 33.0 ± 4.9
- Mean no. SCE / metaphase ± SD (MCF-10A; 0.5 μM): 52.2 ± 9.8
- Mean no. SCE / chromosome ± SD (MCF-10A; 1 μM, 30 hr): 1.57 ± 0.24
- Mean no. SCE / metaphase ± SD (MCF-10A; 1 μM, 30 hr): 73.5 ± 10.9
- increase of chromatid aberrations ([5]; clinically relevant doses (abstract)): 2-6 fold
- radial chromosomes identified ([5]; olaparib-treated cells, all cell types (1 in untreated)): 12
- IC50 (WT E14 mES cells): 600 nM
- IC50 (MDA-MB-468 [6]): 600 nM
- IC50 (HMEC-hTERT [7]): 5.5 µM
- IC50 [8, 10]: 2.5 nM
- enhanced sensitivity of cells lacking wild-type BRCA1 vs wild-type cells ([8]; ratio of IC50, wild-type / Brca1^-/- 236.44): 240 fold
- IC50 [9, 10]: 13 nM
- enhanced sensitivity of cells lacking wild-type BRCA2 vs wild-type cells ([9]; ratio of IC50, wild-type / Brca2^lex1/lex2): 46 fold
